# Test results published in patent publication US7910568B2, “Derivatives of 4- or 5-aminosalicylic acid” (Antibe Therapeutics Inc., priority 2005, dated 2011).
# Legend:
# [1] = test system: visceral pain perception in response to colorectal distension; assay: Rat model of visceral pain perception, colorectal distension, abdominal withdrawal reflex score; assay type: in vivo
# Procedure: A rat model of visceral pain perception, a pre-clinical model of irritable bowel syndrome, was used in the following example. Rats (male, Wistar, 200-250 g, obtained from Charles River, Monza, Italy), were housed in plastic cages and maintained under controlled conditions with 12-hours light/dark cycle with lights on at 7.00 AM. Tap water and standard laboratory chow were freely available. Before experiments, rats were individually trained by spending 2-3 hours per day in a plexiglass cage for 2-3 days. It allowed them to adjust to a movement-restriction environment. Food was withheld for 12 hours before colorectal distension (CRD) recording were performed. Experiments were performed in awake rats and were conducted in a blind manner in that the observer was not aware of the identity of drug administered to each animal.
# In the testing day, rats were sedated with ether inhalation and a 2 cm long latex balloon was inserted intrarectally 2 cm from the anal verge and fixed at the base of the tail. The balloon was connected via a double-barreled cannula to a pressure transducer to continuously monitoring the rectal pressure by a computer (PowerLab PC, A.D. Instruments, Milford, Mass., USA) and to a syringe for inflation/deflation of the balloon. The rats were then housed in a small cage (20×8×8 cm) on an elevated Plexiglas™ platform and allowed to wake up and adapt for 1 hour. After recovery from sedation, animals underwent the CRD procedure and behavioral responses were tested. The night before the experiments, the balloons were inflated and left overnight so the latex stretched and the balloons became compliant.
# CRD of 20 seconds, performed every 5 minutes, was applied in increment of 0.4 ml starting from 0.4 ml up to 1.6 ml water. To achieve an accurate measurement of the colonic parameters and perception, the distensions were repeated twice for each intensity and data for each animal were averaged for analysis. Each animal underwent a double set of CRD. Twenty minutes after the first sequence of CRD (0.4 mL-1.6 ml water), drugs were administered intraperitoneally (i.p.) and a second set of CRD was performed. Behavioral responses during the first and the second set of CRD were assessed and compared.
# Behavioral response to CRD was assessed by measuring the abdominal withdrawal reflex (AWR) using a semiquantitative score (1).
# The effects of mesalamine and Compound XXXV on colonic compliance and sensitivity were determined using a total of 8 fasting rats. To investigate whether the administration of mesalamine and Compound XXXV could revert pain induced by CRD, after the first sequence of CRD, […], after which a second set of CRD was repeated.
# All data are presented as the mean±SEM, with sample sizes of 4 rats/group; statistical comparison of paired data was performed by the Wilcoxon signed rank test. An associated probability (p value) of less that 5% was considered significant.
# [2] = test system: leukocyte adherence to the vascular endothelium; assay: Aspirin-induced leukocyte adherence to the vascular endothelium, intravital microscopy of mesenteric venules; assay type: in vivo, rat
# Procedure: Leukocyte adherence was studied using intravital microscopy, as described in detail previously (Wallace et al., (1993) Am. J. Physiol. 265: 993-998, incorporated hereto by reference). Rats were anesthetized with pentobarbital sodium (60 mg/kg i.p.) and cautery incisions were made along the abdominal region. A tracheotomy was performed to facilitate breathing. The rats were placed in a supine position, and a segment of the mesentery was exteriorized through the abdominal incision. The mesentery was carefully placed over an optically clear viewing pedestal that allowed for trans-illumination of a 2-cm^2 segment of tissue. All exposed tissue was covered with saline-soaked gauze to minimize dehydration. The temperature of the pedestal was kept at 37° C. and the mesentery was superfused with warmed bicarbonate-buffered saline (pH 7.4). An intravital microscope (Nikon L25/0.35) and a ×10 eyepiece were used to observe the mesenteric microcirculation. Post-capillary venules with diameters ranging from 20 to 40 μm were selected for the study. A video camera mounted on the microscope (Panasonic™ digital 5000) projected the image onto a monitor, and the images were recorded for playback analysis using a videocassette recorder. Images of the mesenteric microcirculation were recorded 5 minutes prior to aspirin administration (baseline), at the time of aspirin administration (time 0-5) and every 15 minutes for 60 minutes. Leukocyte adherence was blindly quantified from videotaped images of the vessels made over 5-min periods as the number of leukocytes that remained stationary along the vessel wall for 30 s or more (expressed per 100 μm venule length). Groups of rats (at least 5 in each) were pretreated with Compound XXXV (130 mg/kg), Compound XXVII (100 mg/kg), mesalamine (50 mg/kg), or vehicle 60 min prior to aspirin (or vehicle) administration. These drugs were given intragastrically. In some experiments, rats were treated with glibenclamide (10 mg/kg i.p.) or vehicle 30 min prior to administration of these compounds.
# iNOS mRNA = assay: TNBS-induced colitis in mice, colonic iNOS mRNA by RT-PCR; assay type: in vivo; settings: dose equimolar to 50 mg/kg mesalamine; FIG. 14
# Procedure: The same model was used as described above. In this example, the effects of mesalamine (50 mg/kg) were compared to those of equimolar doses of Compound XXXV. In addition to measuring the severity of colitis by measuring disease activity score and MPO activity, tissues were processed for measurement of a number of genes for inflammatory cytokines and other mediators.
# In particular, mRNA expression in mice of tumour necrosis factor-alpha (TNF-α), interferon gamma (IFN-γ), colonic interleukin (IL)-1, IL-2, IL-10, IL-12 p40, RANTES, cyclooxygenase (COX)-1, COX-2, constitutive endothelial nitric oxide synthase (eNOS), and inducible NOS (iNOS) was measured as described in Wallace et al. (1999) Gastroenterology 117: 557-566, incorporated herein by reference.
# Briefly, reverse transcription-polymerase chain reaction (RT-PCR) was used to detect and quantify mRNA of the particular cytokine/chemokine/enzyme. Glyceraldehyde-3-phosphate dehydrogenase (GAPDH) was used as the “housekeeping gene” for mRNA expression (i.e., as an internal control). For each sample, the ratio of the amplification of the target gene to the amplification of GAPDH (expression of each is measured by performing densitometry on gels) was obtained. […]
compound,measurement,setting,value
"Nc1ccc(O)c(C(=O)Oc2ccc(-c3cc(=S)ss3)cc2)c1 [Compound XXXV, 5-Amino-2-hydroxy-benzoic acid 4-(5-thioxo-5H-[1,2]dithiol-3-yl)-phenyl ester]",Perception score (visceral pain in response to colorectal distension),"[1]; 100 mg/kg i.p., second set of CRD 0.4-1.6 ml, FIG. 15",more effective than mesalamine (and vehicle) in reducing visceral pain
same,Pain perception score after glibenclamide pretreatment,"[1]; 0.8 mL colorectal distention, 100 mg/kg, glibenclamide 10 mg/kg i.p. 30 min before, FIG. 17",reversed by pretreatment with glibenclamide
same,Pain perception score,"[1]; 0.8 mL colorectal distention, 100 mg/kg, FIG. 17",significantly reduced the pain perception
same,Pain perception score,"[1]; equimolar doses: mesalamine 50 mg/kg, Compound XXXV 130 mg/kg, ADT-OH 80 mg/kg, Compound XXVII 100 mg/kg, 4-HTB 50 mg/kg, vs vehicle",significantly reduced pain perception
same,Aspirin-induced leukocyte adherence after glibenclamide pretreatment,"[2]; glibenclamide 10 mg/kg i.p. 30 min prior to the compound, FIG. 19",reversed the inhibitory effect
same,Aspirin-induced leukocyte adherence,"[2]; intragastric pretreatment 60 min prior to aspirin (XXXV 130 mg/kg, mesalamine 50 mg/kg), glibenclamide 10 mg/kg i.p., FIG. 19",prevented the aspirin-induced increase in leukocyte adherence
same,"Aspirin-induced leukocyte adherence, final time period","[2]; minutes 60-65, XXXV 130 mg/kg, XXVII 100 mg/kg intragastric, FIG. 20",suppress aspirin-induced leukocyte adherence
same,"Aspirin-induced leukocyte adherence, final time period, after glibenclamide pretreatment","[2]; minutes 60-65, glibenclamide 10 mg/kg i.p., FIG. 20",reverse this inhibitor effect
same,iNOS mRNA expression,iNOS mRNA,suppressed
